From PubChem BioAssay AID179 (DTP/NCI, 2004)
Active and inactive are the calls of the source.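 Rule for the calls: active = compounds giving half or more protection of infected cells from virus-caused growth loss, again on retest; inactive = the rest.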

System: CEM cells HIV-1 protection, formazan growth assay
Assay: NCI AIDS Antiviral Assay
Details: for IC50: measured here: growth of uninfected CEM cells
Summary of the method: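 Screen of anti-HIV-1 activity in human CEM cells using a formazan-based growth measurement at five drug concentrations. Hits with 50% or greater protection were repeated, and confirmation required reproducible complete protection.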

Compound	EC50	IC50	outcome
O=C1OC2(c3ccc(O)cc3Oc3cc(O)ccc32)c2ccccc21	> 50.1 µM	> 50.1 µM	
COC1=C(C)C(=O)C2C(C1=O)C(c1ccc(OC)c(OC)c1)[C@H]2C (stereo not given in full)	> 151 µM	135 µM	
COC(=O)NC12CC3CC(C(C)O1)C2N(Cc1ccccc1)C3 (stereo not given)	> 200 µM	> 200 µM	
O=C1CCC(c2ccc(Cl)cc2)=NN1c1nsc2ccccc12	> 39.8 µM	> 39.8 µM	
CCCCCCCC[N+]12CN3CN(CN(C3)C1)C2	> 759 µM	39.8 µM	
NC(CCCCCP(=O)(c1ccccc1)C1C=CC=CC1)C(=O)O (stereo not given)	> 200 µM	> 200 µM	
CC(=O)Nc1ccc(/C=C2/SC(=S)N(/C=C(\c3ccccc3)S(=O)Cc3ccccc3)C2=O)cc1 (stereo not given)	> 200 µM	89.1 µM	
C=CCOCCCCC(C(C)=O)C(=O)OC (stereo not given)	> 251 µM	> 251 µM	
CCOC(=O)/C=C\SCCC(=O)OC	> 1150 µM	741 µM	
Cc1nc2ccc(S(=O)(=O)Nc3ccccc3)cc2c(=O)n1NC(=O)CNc1ccccc1	> 200 µM	186 µM	
COc1ccc([C@H]2Oc3cc(OCc4ccccc4)c(O)cc3[C@@H]2C)c(OC)c1	> 200 µM	38.9 µM	
COc1ccc(C(=O)CC2=Nc3nnc(CCCCCCCc4nnc5n4C(=O)C(CC(=O)c4ccc(OC)cc4)=N5)n3C2=O)cc1	> 4.27 µM	> 4.27 µM	
O=c1ccn([C@@H]2C=C(CO)[C@@H](O)[C@H]2O)c(=O)[nH]1	> 200 µM	> 200 µM	
CCOC(=O)CCC(NC(=O)c1ccc(N=Cc2nc3ccccc3nc2-c2ccccc2)cc1)C(=O)OCC (stereo not given)	> 12.6 µM	> 12.6 µM	
CCOC(=O)c1nc2cc(C(F)(F)F)ccc2nc1Oc1ccc(F)cc1	> 200 µM	186 µM	
CC(C)N1CCC2(CC1)NNc1ncccc1-n1cccc12	> 676 µM	355 µM	
CCOc1cnn(-c2ccccc2)c(=O)c1SCc1ccccc1	> 77.6 µM	56.2 µM	
O=C(O)c1c(Br)c(Br)c(Br)c(Br)c1C1c2ccc(O)cc2Oc2cc(O)ccc21	2.95 µM	174 µM	
CC(=O)C(C)C(=O)N1C(=O)N(C)C2(C)N(C)C(=O)NC12C (stereo not given)	> 200 µM	> 200 µM	
Cc1[nH]c(=S)[nH]c(=O)c1CCl	> 200 µM	107 µM	
Nc1nc(Cl)c(N)c(NCC2(CO)CC(O)C2)n1 (stereo not given)	> 200 µM	> 200 µM	
CC(=O)c1cccc(NC(=O)Nc2ncccc2C)c1	182 µM	> 200 µM	

Compound	EC50	IC50	outcome
O=C(Cc1ccccc1)c1ccc2[nH]c(=O)oc2c1	> 200 µM	102 µM	
O=C1/C(=C/c2ccc([N+](=O)[O-])cc2)CCc2ccccc21	> 7.24 µM	> 7.24 µM	
Cn1c2c(c3ccccc31)C1CCCCC1C1C(=O)NC(=O)C21 (stereo not given)			inactive
NCCSSSSCCN	> 132 µM	34.7 µM	
O=[N+]([O-])c1ccc(C2=Nn3c(nnc3-c3ccccc3)SC2)o1			inactive
CCCCOP(=O)(OCCCC)/C(C#N)=C/c1ccco1	> 219 µM	178 µM	
O=[N+]([O-])/C=C/c1ccc(O)cc1			inactive
COc1cc(CC(=O)O)c(C(=O)c2cccc([N+](=O)[O-])c2)cc1OC	> 200 µM	37.2 µM	
Cc1ccc2c(c1)P(=O)(O)c1cc(C)ccc1O2	> 200 µM	> 200 µM	
C(=Nc1cnc2ccccc2c1)c1ccnc2ccccc12	> 66.1 µM	3.55 µM	
CC1CN(c2ccccc2)NC1=O (stereo not given)	> 200 µM	> 200 µM	
CC1(C)C2CCC1(CS(=O)(=O)Nc1ccccc1)C(=O)C2 (stereo not given)	> 200 µM	> 200 µM	
Clc1ccc(Nc2nnc(CCCCCCCCc3nnc(Nc4ccc(Cl)cc4)o3)o2)cc1	> 200 µM	45.7 µM	
CCSC1=C(C)N(C=NC(C)(C)C)CC1	> 1100 µM	> 1100 µM	
O=C1CCSC(=O)N1c1ccccc1	> 200 µM	> 200 µM	
CCC(C)N1CN(c2ccccc2)C2(CCN(CCCC(=O)c3ccc(F)cc3)CC2)C1=O (stereo not given)	> 200 µM	3.55 µM	
CC(=O)OCC1OC(N2C(C)=C(C(C)=O)C(c3ccco3)C(C#N)=C2S)C(OC(C)=O)C(OC(C)=O)C1OC(C)=O (stereo not given)	> 200 µM	110 µM	
O=C1CC(=O)NC(=NN2C(=O)/C(=C/c3ccccc3)N=C2c2ccccc2)N1	> 200 µM	> 200 µM	
Cc1n[nH]c(=O)n1/N=C/c1cccnc1			inactive
COc1cc2c(cc1OC)C(Cc1ccc(Oc3cc(CC4c5cc(OC)c(OC)cc5CCN4C)ccc3O)cc1)N(C)CC2 (stereo not given)			inactive
Cc1cc(CO)c(O)c(CN(CCO)CCO)c1	> 200 µM	20.4 µM	
CC1SC(C)SC(C(C)(C)O)S1 (stereo not given)	> 32.4 µM	> 32.4 µM	

Compound	EC50	IC50	outcome
Cc1ccc(CS(=O)C(Cl)(Cl)c2ccc(C)cc2)cc1 (stereo not given)	> 41.7 µM	15.5 µM	
COc1ccc(C2=Nc3c(nc(OC)[nH]c3=O)NC(c3ccccc3)C2)cc1 (stereo not given)			inactive
O=C(NC1C(=O)NNC1c1ccccc1Cl)c1ccccc1 (stereo not given)	> 158 µM	> 158 µM	
CCCC(=O)O[C@H]1[C@@H](OC(C)=O)C/C(C)=C\[C@@H]2OC(=O)[C@]3(C)OC23[C@@H](O)C2C3(C)OC3CC(OC(C)=O)[C@@]21C (stereo not given in full)	> 117 µM	32.4 µM	
Cc1cc(=O)oc2c1ccc1occc(=O)c12	> 100 µM	56.2 µM	
CC(=O)NS(=O)(=O)c1ccc(N=Cc2cc(Cl)cc(Cl)c2O)cc1	> 200 µM	19.5 µM	
COC(=O)/C(=N\NC(N)=O)C(C(=O)C(=O)Nc1ccccc1OC)c1nc2ccc([N+](=O)[O-])cc2[nH]c1=O (stereo not given)	> 479 µM	229 µM	
Cc1ccc(S(=O)(=O)N/N=C2/CCCOC2)cc1	> 200 µM	138 µM	
COc1ccc(Cc2cc(Cc3ccc(OC)cc3)cc(Cc3ccc(OC)cc3)c2)cc1	> 100 µM	> 100 µM	
CCO[C@H]1O[C@@H]2OC3(C)CCC4[C@H](C)CCC([C@H]1C)[C@]42OO3 (stereo not given in full)	> 200 µM	35.5 µM	
COc1cc(/C=C2\N=C(c3ccccc3)OC2=O)cc(OC)c1OC	> 21.4 µM	> 21.4 µM	
COc1ccccc1NC(=O)/C(=C\n1c(=S)[nH]c2ccc([N+](=O)[O-])cc21)C(C)=O	> 200 µM	112 µM	
COc1ccccc1C1SCC(=O)N1c1ccc(-c2ccc(-n3c(-c4ccccc4)nc4ccccc4c3=O)cc2)cc1 (stereo not given)	> 200 µM	> 200 µM	
Cc1ccc2c(c1)sc1n[nH]c(=S)n12	> 117 µM	> 117 µM	
Cc1nn2c(=O)c3c([N+](=O)[O-])c(C)nn3c(=O)c2c1[N+](=O)[O-]	> 562 µM	> 562 µM	
CC(=O)[CH-]C(=O)c1ccccc1.CC(=O)[CH-]C(=O)c1ccccc1.CC(=O)[CH-]C(=O)c1ccccc1.[Tl+3]	> 138 µM	49 µM	
CSCC1Cc2c(cc3c(c2O)C(=O)c2ccccc2C3=O)O1 (stereo not given)			inactive
O=C1c2ccccc2C2(c3ccc(F)cc3)NCCN12 (stereo not given)	> 200 µM	186 µM	
CC/C=N\N1C(N)=C(C#N)C(C#N)(C#N)C1CC (stereo not given)	> 200 µM	64.6 µM	
O=c1[nH]c(=O)n(C2CC(O)C(CO)O2)cc1OCC1CCCCC1 (stereo not given)	> 200 µM	> 200 µM	
CC1(C)CC(=O)c2c(nc3c(ccc4ccccc43)c2-c2ccc(NC(=O)CCCC(=O)Nc3ccc(-c4c5c(nc6c4ccc4ccccc46)CC(C)(C)CC5=O)cc3)cc2)C1	> 50.1 µM	> 50.1 µM	
C(#C[PH+](c1ccccc1)c1ccccc1)c1ccccc1.C(#C[PH+](c1ccccc1)c1ccccc1)c1ccccc1.C(#C[PH+](c1ccccc1)c1ccccc1)c1ccccc1.[C-]#[O+].[C-]#[O+].[C-]#[O+].[W]	> 0.676 µM	> 0.676 µM	

Compound	EC50	IC50	outcome
Cn1c(-c2cccc(N)c2)[n+](C)c2ccccc21	> 200 µM	126 µM	
CCCCCCCCCCCCCC1=NCC(C)(C)N1	> 93.3 µM	20.4 µM	
CC(C)CCCC(C)[C@H]1CC[C@H]2[C@@H]3CC[C@H]4C[C@@H](CCC=C(c5cc(Cl)c(OCc6ccc([N+](=O)[O-])cc6)c(C(=O)O)c5)c5cc(Cl)c(OCc6ccc([N+](=O)[O-])cc6)c(C(=O)O)c5)CC[C@]4(C)[C@H]3CC[C@]12C (stereo not given in full)	> 100 µM	> 100 µM	
Cc1ccc(S(=O)(=O)Nn2c(S)c(C#N)c(-c3ccc([N+](=O)[O-])cc3)c(C#N)c2=O)cc1	> 200 µM	30.9 µM	
CC1CC/C(=C\c2ccc(Cl)cc2)C2=C1C(c1ccc(Cl)cc1)N1C(=O)CSC1=N2 (stereo not given)			inactive
OC1c2ccccc2C2C(O)c3ccccc3C12 (stereo not given)			inactive
COC1/C=C\OC2(C)Oc3c(C)c(O)c4c(O)c(c(/C=N\O)c(O)c4c3C2=O)NC(=O)/C(C)=C\C=C/C(C)C(O)C(C)C(O)C(C)C(OC(C)=O)C1C (stereo not given)	> 77.6 µM	74.1 µM	
COC(=O)/C=C/c1cnc2c(c1)oc(=O)n2C	> 200 µM	> 200 µM	
CCOC(=O)C1C(c2ccc(OC)cc2)c2c([nH]n(-c3ccccc3)c2=O)CC1(C)O (stereo not given)			inactive
O=C1/C(=C/c2ccccc2)CN(C(=O)CCN2CCCC2)C/C1=C\c1ccccc1	> 575 µM	0.813 µM	
CCC(=O)c1c(CC)ccc2ccccc12	> 200 µM	105 µM	
O=C(Cn1cc(F)c(=O)[nH]c1=O)C12CC3CC(CC(C3)C1)C2	> 200 µM	186 µM	
COC(=O)C1N=CSCC1(C)O (stereo not given)	> 1320 µM	186 µM	
CCC1(C)C=Cc2c(cc(O)c3c(=O)c4ccccc4n(C)c23)O1 (stereo not given)	> 200 µM	> 200 µM	
COc1nc(=O)cc(N)n1C1OC(CO)C(O)C1O (stereo not given)	> 912 µM	> 912 µM	
C(=C(Sc1ccccc1)Sc1ccccc1)C(Sc1ccccc1)c1ccccc1 (stereo not given)	> 200 µM	> 200 µM	
CCOP(=O)(OCC)C(C)(CC)NC (stereo not given)	> 200 µM	> 200 µM	
C#CCOCn1cnc2c(Sc3c([N+](=O)[O-])ncn3C)ncnc21	> 105 µM	38 µM	
CCCCCCCC(=O)c1ccc(O)c(C(=O)Nc2cccc(C(F)(F)F)c2)c1	> 12.9 µM	0.145 µM	
